Earlier results on one compound are cited in patent US20120107430A1, “PRE-PROCEDURE MEAL REGIMEN” (priority 2009, published 2012).

The test system of data set [1] is colon. The conditions noted are these: either diet (light breakfast then clear liquids, or normal breakfast, low residue lunch, then clear liquids); 200 patients.
For data set [2], the system named is colon. As to conditions: N=50 per arm; senna two doses 158 mg each, 8 hours apart; sodium phosphate 48 grams.

For `O=P(O)(O)O` [sodium phosphate], the “good to excellent preparation” value in the data set with colon [1] is listed as 93-95%. For the same compound, in the data set with colon [2], the “patients reporting good tolerance” value was 28 patients and the “patients reporting poor tolerance” value is recorded as 12 patients.
